Assay [1] has as its system MRSA ΔfloA mutant. Briefly: β-lactam antibiotic sensitivity of MRSA ΔfloA mutant versus WT. The format is cell-based, Staphylococcus aureus. The settings on record: antibiotic concentrations that typically inhibit MSSA growth.
The subject of assay [2] is Staphylococcus aureus MRSA strain USA300. In words: In vitro MRSA cell growth inhibition (bacterial count CFU/ml), statin or ZA with oxacillin. The settings on record: for MRSA growth (CFU/ml) with oxacillin plus compound: combination with the β-lactam antibiotic oxacillin. Format: cell-based.
The subject of assay [3] is MRSA ΔfloA mutant. The settings on record: mice infected with ΔfloA mutant, 3×10^7 CFU; oxacillin 200 mg/kg/day; three days post-infection.
Method: (§1) Female BALB/c mice (8-10 weeks old, 16-19 g weight) were purchased (Charles River Laboratories), Mice were housed in polypropylene cages in standardized lighting conditions and had ad libitum access to food and water.
(§2) The S. aureus strains were cultured on BHI medium (18 h, 37° C.). Cells were collected, washed three times with PBS and diluted to OD600 nm=0.05. Viable cell counts were determined by plating inoculum dilutions on TSB agar plates. For survival experiments, cohorts of 10 mice were infected with 150 μl of S. aureus cultures (3×10^7 cells) via intravenous injection. Each strain was used to infect one mouse cohort. Doses of oxacillin (200 mg/kg) alone or in combination with ZA (50 mg/Kg or 20 mg/Kg) were injected intraperitoneally (i.p.) daily for 1-4 days. […] The first dose was administered 30 min after the bacterial inoculation. Infections were allowed to progress until severe infection signs occurred or to a 3-day endpoint. Mice were sacrificed when they met the following criteria: 1) loss of at least 20% body weight, 2) loss of at least 15% body weight and ruffled fur, 3) loss of at least 10% body weight and hunched posture, or 4) 4 days post-infection.
The subject of a further assay is MRSA WT strain. In words: Murine infection model, survival, WT strain. The settings on record: mice infected with WT, 3×10^7 CFU; oxacillin 200 mg/kg/day; three days post-infection.
The subject of another assay is S. aureus. Briefly: Growth curves of S. aureus cultures at different ZA concentrations. Format: cell-based, Staphylococcus aureus. Conditions: ZA 50 μM; TSB medium, 36 h, 37° C.
A further assay deals with PBP2a. The format is cell-based. The settings on record: ZA-treated MRSA cells; bands at ~80 kDa.
A further assay relates to FloA membrane foci. Briefly: FloA membrane foci count by fluorescence microscopy. The settings on record: ZA 50 μM. The format is cell-based, Staphylococcus aureus. The procedure:
Cells from liquid cultures were washed in PBS and resuspended in 0.5 ml 4% paraformaldehyde (6 min, room temperature). Samples were washed twice and resuspended in 0.5 ml PBS. Images were acquired on a Leica DMI6000B microscope equipped with a CRT6000 illumination system, with a HCX PL APO oil immersion objective (100×1.47) and a color camera DFC630FX. Leica Application Suite Advanced Fluorescence
Software was used for linear image processing. The YFP signal was detected (excitation filter 489 nm, emission filter 508 nm). Excitation times were 567 msec. Transmitted light images were taken with 55 msec excitation time.

A further assay concerns FloA and PBP2a. Briefly: FloA and PBP2a oligomerization by sucrose gradient centrifugation. The settings on record: membrane fraction of ZA-treated versus untreated cells.
Another assay relates to MRSA. Format: cell-based, Staphylococcus aureus. The settings on record: β-lactam antibiotics; treated versus untreated MRSA.
In assay [4] the target is ΔEA4 flotillin variant. The format is binding, Staphylococcus aureus.
For assay [5], the target named is ΔPHB flotillin variant. The format is binding, Staphylococcus aureus.
The target of assay [6] is ΔMAR flotillin variant. The format is binding, Staphylococcus aureus.
For assay [7], the system named is ΔMAR flotillin variant. The format is binding, Staphylococcus aureus. This is another data set of the same source.
Another assay concerns the target FloA (WT flotillin) (Staphylococcus aureus, UniProt Q99TS3). Format: binding. The settings on record: purified WT FloA; sucrose gradient, FloA immunodetection in lipid fraction.
In assay [8] the test system is ΔPHB flotillin variant. Format: binding, Staphylococcus aureus. The source holds these as a separate data set.
Assay [9] concerns ΔEA4 flotillin variant. Format: binding, Staphylococcus aureus. This is another data set of the same source.

Entries after “also recorded” stand apart in the source; their conditions may differ.

FloA (WT flotillin), sequence (Q99TS3 whole entry, looked up): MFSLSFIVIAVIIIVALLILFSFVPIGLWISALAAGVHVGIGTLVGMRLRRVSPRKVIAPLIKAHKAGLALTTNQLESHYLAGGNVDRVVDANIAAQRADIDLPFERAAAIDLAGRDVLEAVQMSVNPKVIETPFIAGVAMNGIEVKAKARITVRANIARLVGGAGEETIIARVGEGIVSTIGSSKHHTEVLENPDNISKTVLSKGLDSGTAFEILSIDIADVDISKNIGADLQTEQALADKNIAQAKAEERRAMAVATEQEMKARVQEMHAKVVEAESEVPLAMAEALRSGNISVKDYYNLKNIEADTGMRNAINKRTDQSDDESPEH
Method for FloA and PBP2a: FloA oligomerization in S. aureus WT and Δcrt mutant and PBP2a oligomerization were analyzed in sucrose gradient assays. S. aureus cultures were harvested and cells crosslinked with 0.5 mM DSP (dithiobis(succinimidyl propionate)) before cell lysis and membrane fraction purification. Purified membrane fractions (200 μg) solubilized with 0.5% DDM were layered on a 5-40% linear sucrose gradient generated by a Biocomp gradient maker, then centrifuged (Beckman; 100,000 g, 16 h, 4° C.). Fractions (1 ml) were collected from the bottom of the gradient and proteins associated with each fraction were precipitated with 10% trichloroacetic acid (TCA). Protein fractions were dried and resuspended in PBS prior to immunoblot analyses.
Method for MRSA WT strain: as §1, §2

In the case of `Cc1onc(-c2c(F)cccc2Cl)c1C(=O)N[C@@H]1C(=O)N2[C@@H]1SC(C)(C)[C@@H]2C(=O)O` [flucoxacillin], the “growth / resistance of ΔfloA compared to WT in presence of β-lactam antibiotic” value in the assay with MRSA ΔfloA mutant [1] is “severe growth inhibition”.

For `CC1(C)S[C@@H]2[C@H](NC(=O)[C@H](N)c3ccccc3)C(=O)N2[C@H]1C(=O)O` [ampicillin], the “growth / resistance of ΔfloA compared to WT in presence of β-lactam antibiotic” value in the assay on MRSA ΔfloA mutant [1] is listed as “comparable resistance”.

`CC(C)c1c(C(=O)Nc2ccccc2)c(-c2ccccc2)c(-c2ccc(F)cc2)n1CC[C@@H](O)C[C@@H](O)CC(=O)O` [atorvastatin]: in assay [2], the “MRSA growth (CFU/ml) with oxacillin plus compound” value is “did not alter the MRSA antibiotic-resistant phenotype”.

Consider `CCOc1ccc2ccccc2c1C(=O)N[C@@H]1C(=O)N2[C@@H]1SC(C)(C)[C@@H]2C(=O)O` [nafcillin], for which the “growth / resistance of ΔfloA compared to WT in presence of β-lactam antibiotic” value in the assay with MRSA ΔfloA mutant [1] was “severe growth inhibition”.

As for `Cc1onc(-c2ccccc2)c1C(=O)N[C@@H]1C(=O)N2[C@@H]1SC(C)(C)[C@@H]2C(=O)O` [oxacillin], the results for the survival rate with MRSA ΔfloA mutant [3] and in the assay with MRSA WT strain were 70% and 10%, respectively. For the same compound, in the assay on MRSA ΔfloA mutant [1], the “growth / resistance of ΔfloA compared to WT in presence of β-lactam antibiotic” value is recorded as “severe growth inhibition”.

For the compound `Cc1onc(-c2c(Cl)cccc2Cl)c1C(=O)N[C@@H]1C(=O)N2[C@@H]1SC(C)(C)[C@@H]2C(=O)O` [dicloxacillin], the “growth / resistance of ΔfloA compared to WT in presence of β-lactam antibiotic” value in the assay on MRSA ΔfloA mutant [1] is listed as “severe growth inhibition”.

For `C=C(CC[C@]12O[C@H](C(=O)O)[C@@](O)(C(=O)O)[C@](C(=O)O)(O1)[C@H](OC(=O)/C=C/[C@@H](C)C[C@@H](C)CC)[C@H]2O)[C@@H](OC(C)=O)[C@H](C)Cc1ccccc1` [ZA, Zaragozic acid], the S. aureus growth entry in the assay with S. aureus is given as “no growth defects; also recorded: did not affect”. Further, the “PBP2a oligomerization (BN-PAGE)” value in the assay with PBP2a was “deficient PBP2a oligomerization”. In addition, the “effect of increasing compound concentration on antibiotic effect of oxacillin” value in assay [2] (MRSA cultures, combination with oxacillin) is on record as “potentiated the antibiotic effect of oxacillin”. Further, the “MRSA growth (CFU/ml) with oxacillin plus compound” value in assay [2] is reported as “inhibited”. For the same compound, the “MRSA growth (CFU/ml) in the presence of compound alone” value in [2] (without oxacillin) was “unaltered”. Further, the “number of FloA membrane foci” value with FloA membrane foci was “reduced”. Further, in the assay on FloA and PBP2a, the “oligomerization of flotillin and PBP2a (sucrose gradient)” value is “reduced oligomerization of flotillin and PBP2a”. Further, the “antibiotic sensitivity profile of treated MRSA cultures” value in the assay on MRSA was “resembled those of the ΔfloA mutant”.

With `CCC(C)CCCCCCCCCCC(=O)OC[C@H]1O[C@@H](OC(=O)/C(C)=C/C=C/C(C)=C/C=C/C(C)=C/C=C/C=C(C)/C=C/C=C(\C)CCC=C(C)C)[C@H](O)[C@@H](O)[C@@H]1O` (stereo partly drawn) [staphyloxanthin], the Kd at ΔEA4 flotillin variant [4] worked out at 9.43 nM; at ΔPHB flotillin variant [5], 943 nM; at ΔMAR flotillin variant [6] it was 12 nM. The “lipid-protein interaction in flotation assay” value in the assay with ΔMAR flotillin variant [7] is on record as “interacted strongly”; on FloA (WT flotillin), “interacted strongly”; in the assay with ΔPHB flotillin variant [8] it was “showed no tendency to interact”; with ΔEA4 flotillin variant [9], “interacted strongly”.

Take `COc1cccc(OC)c1C(=O)N[C@@H]1C(=O)N2[C@@H]1SC(C)(C)[C@@H]2C(=O)O` [methicillin]: in the assay with MRSA ΔfloA mutant [1], the “growth / resistance of ΔfloA compared to WT in presence of β-lactam antibiotic” value was “severe growth inhibition”.

Source of the values: patent US20200345701A1, “USE OF STATINS IN OVERCOMING RESISTANCE TO BETA-LACTAM ANTIBIOTICS IN BACTERIAL SPECIES SYNTHETIZING ISOPRENOIDS USING THE MEVALONATE SYNTHETIC PATHWAY” (CONSEJO SUPERIOR DE INVESTIGACIONES CIENTIFICAS (CSIC), priority 2017, published 2020).
